Literature values in patent US20260193295A1, “CILAGICIN COMPOUNDS AND METHODS OF USE THEREOF” (priority 2022, published 2026).
≈ marks a conversion by molar mass, not a printed value. Where two headings read alike, the source gives them in different places.

System: vancomycin-resistant Enterococci clinical isolates
Details: cited from earlier work
[1] = Enterococci clinical isolate code 781
[2] = Enterococci clinical isolate code 782
[3] = Enterococci clinical isolate code 783
[4] = Enterococci clinical isolate code 784
[5] = Enterococci clinical isolate code 785
[6] = Enterococci clinical isolate code 786
[7] = Enterococci clinical isolate code 787
[8] = Enterococci clinical isolate code 788
[9] = Enterococci clinical isolate code 789
[10] = Enterococci clinical isolate code 790
[11] = Enterococci clinical isolate code 791
[12] = Enterococci clinical isolate code 792
[13] = Enterococci clinical isolate code 793
[14] = Enterococci clinical isolate code 794
[15] = Enterococci clinical isolate code 795
[16] = Enterococci clinical isolate code 796
[17] = Enterococci clinical isolate code 797
[18] = Enterococci clinical isolate code 798
[19] = Enterococci clinical isolate code 799
[20] = Enterococci clinical isolate code 800
[21] = Enterococci clinical isolate code 801
[22] = Enterococci clinical isolate code 802
[23] = Enterococci clinical isolate code 803
[24] = Enterococci clinical isolate code 804
[25] = Enterococci clinical isolate code 805
[26] = Enterococci clinical isolate code 806
[27] = Enterococci clinical isolate code 807
[28] = Enterococci clinical isolate code 808
[29] = Enterococci clinical isolate code 809
[30] = Enterococci clinical isolate code 810

Compound	MIC [1] [µg/mL]	MIC [2] [µg/mL]	MIC [3] [µg/mL]	MIC [4] [µg/mL]	MIC [5] [µg/mL]	MIC [6] [µg/mL]	MIC [7] [µg/mL]	MIC [8] [µg/mL]	MIC [9] [µg/mL]	MIC [10] [µg/mL]	MIC [11] [µg/mL]	MIC [12] [µg/mL]	MIC [13] [µg/mL]	MIC [14] [µg/mL]	MIC [15] [µg/mL]	MIC [16] [µg/mL]	MIC [17] [µg/mL]	MIC [18] [µg/mL]	MIC [19] [µg/mL]	MIC [20] [µg/mL]	also measured
CN[C@H](CC(C)C)C(=O)N[C@H]1C(=O)N[C@@H](CC(N)=O)C(=O)N[C@H]2C(=O)N[C@H]3C(=O)N[C@H](C(=O)N[C@H](C(=O)O)c4cc(O)cc(O)c4-c4cc3ccc4O)[C@H](O)c3ccc(c(Cl)c3)Oc3cc2cc(c3O[C@@H]2O[C@H](CO)[C@@H](O)[C@H](O)[C@H]2O[C@H]2C[C@](C)(N)[C@H](O)[C@H](C)O2)Oc2ccc(cc2Cl)[C@H]1O [Vancomycin]	>64	32 (≈ 22.1 µM)	64 (≈ 44.2 µM)	4 (≈ 2.76 µM)	2 (≈ 1.38 µM)	32 (≈ 22.1 µM)	>64	2 (≈ 1.38 µM)	>64	>64	0.5 (≈ 0.345 µM)	>64	1 (≈ 0.69 µM)	>64	32 (≈ 22.1 µM)	8 (≈ 5.52 µM)	2 (≈ 1.38 µM)	2 (≈ 1.38 µM)	>64	64 (≈ 44.2 µM)	MIC [21]: 4 µg/mL (≈ 2.76 µM); MIC [22]: >64 µg/mL; MIC [23]: >64 µg/mL; MIC [24]: 16 µg/mL (≈ 11 µM); MIC [25]: 1 µg/mL (≈ 0.69 µM); MIC [26]: 0.5 µg/mL (≈ 0.345 µM); MIC [27]: >64 µg/mL; MIC [28]: 4 µg/mL (≈ 2.76 µM); MIC [29]: >64 µg/mL; MIC [30]: 1 µg/mL (≈ 0.69 µM)
CO[C@H]1/C=C/O[C@@]2(C)Oc3c(C)c(O)c4c(O)c(c(/C=N/N5CCN(C)CC5)c(O)c4c3C2=O)NC(=O)/C(C)=C\C=C\[C@H](C)[C@H](O)[C@@H](C)[C@@H](O)[C@@H](C)[C@H](OC(C)=O)[C@@H]1C [Rifampin]	1 (≈ 1.22 µM)	1 (≈ 1.22 µM)	>4	≤0.25	2 (≈ 2.43 µM)	2 (≈ 2.43 µM)	≤0.25	>4	>4	>4	1 (≈ 1.22 µM)	4 (≈ 4.86 µM)	4 (≈ 4.86 µM)	4 (≈ 4.86 µM)	2 (≈ 2.43 µM)	>4	4 (≈ 4.86 µM)	≤0.25	2 (≈ 2.43 µM)	2 (≈ 2.43 µM)	MIC [21]: 0.5 µg/mL (≈ 0.608 µM); MIC [22]: ≤0.25 µg/mL; MIC [23]: >4 µg/mL; MIC [24]: 2 µg/mL (≈ 2.43 µM); MIC [25]: 2 µg/mL (≈ 2.43 µM); MIC [26]: >4 µg/mL; MIC [27]: >4 µg/mL; MIC [28]: >4 µg/mL; MIC [29]: 2 µg/mL (≈ 2.43 µM); MIC [30]: 2 µg/mL (≈ 2.43 µM)
Gentamicin	≤500	>500	>500	≤500	>500	>500	≤500	≤500	>500	≤500	≤500	>500	≤500	>500	>500	≤500	≤500	≤500	>500	>500	MIC [21]: >500 µg/mL; MIC [22]: >500 µg/mL; MIC [23]: >500 µg/mL; MIC [24]: >500 µg/mL; MIC [25]: ≤500 µg/mL; MIC [26]: ≤500 µg/mL; MIC [27]: ≤500 µg/mL; MIC [28]: ≤500 µg/mL; MIC [29]: ≤500 µg/mL; MIC [30]: ≤500 µg/mL
CC(=O)NC[C@H]1CN(c2ccc(N3CCOCC3)c(F)c2)C(=O)O1 [Linezolid]	2 (≈ 5.93 µM)	2 (≈ 5.93 µM)	2 (≈ 5.93 µM)	1 (≈ 2.96 µM)	2 (≈ 5.93 µM)	2 (≈ 5.93 µM)	2 (≈ 5.93 µM)	4 (≈ 11.9 µM)	2 (≈ 5.93 µM)	2 (≈ 5.93 µM)	2 (≈ 5.93 µM)	1 (≈ 2.96 µM)	2 (≈ 5.93 µM)	2 (≈ 5.93 µM)	1 (≈ 2.96 µM)	2 (≈ 5.93 µM)	2 (≈ 5.93 µM)	4 (≈ 11.9 µM)	2 (≈ 5.93 µM)	2 (≈ 5.93 µM)	MIC [21]: 2 µg/mL (≈ 5.93 µM); MIC [22]: 2 µg/mL (≈ 5.93 µM); MIC [23]: 4 µg/mL (≈ 11.9 µM); MIC [24]: 2 µg/mL (≈ 5.93 µM); MIC [25]: 2 µg/mL (≈ 5.93 µM); MIC [26]: 2 µg/mL (≈ 5.93 µM); MIC [27]: 2 µg/mL (≈ 5.93 µM); MIC [28]: 4 µg/mL (≈ 11.9 µM); MIC [29]: 2 µg/mL (≈ 5.93 µM); MIC [30]: 2 µg/mL (≈ 5.93 µM)
Penicillin	2	2	>32	2	4	1	32	1	≤0.12	>32	2	>32	2	>32	4	2	0.5	1	2	2	MIC [21]: 1 µg/mL; MIC [22]: >32 µg/mL; MIC [23]: >32 µg/mL; MIC [24]: 4 µg/mL; MIC [25]: 2 µg/mL; MIC [26]: 8 µg/mL; MIC [27]: >32 µg/mL; MIC [28]: 2 µg/mL; MIC [29]: 1 µg/mL; MIC [30]: 2 µg/mL
CCCCCCCCCC(=O)N[C@@H](Cc1c[nH]c2ccccc12)C(=O)N[C@H](CC(N)=O)C(=O)N[C@@H](CC(=O)O)C(=O)N[C@@H]1C(=O)NCC(=O)N[C@@H](CCCN)C(=O)N[C@@H](CC(=O)O)C(=O)N[C@H](C)C(=O)N[C@@H](CC(=O)O)C(=O)NCC(=O)N[C@H](CO)C(=O)N[C@@H]([C@H](C)CC(=O)O)C(=O)N[C@@H](CC(=O)c2ccccc2N)C(=O)O[C@@H]1C [Daptomycin]	4 (≈ 2.47 µM)	2 (≈ 1.23 µM)	4 (≈ 2.47 µM)	4 (≈ 2.47 µM)	2 (≈ 1.23 µM)	0.5 (≈ 0.309 µM)	8 (≈ 4.94 µM)	1 (≈ 0.617 µM)	8 (≈ 4.94 µM)	4 (≈ 2.47 µM)	1 (≈ 0.617 µM)	4 (≈ 2.47 µM)	4 (≈ 2.47 µM)	4 (≈ 2.47 µM)	1 (≈ 0.617 µM)	2 (≈ 1.23 µM)	1 (≈ 0.617 µM)	1 (≈ 0.617 µM)	2 (≈ 1.23 µM)	2 (≈ 1.23 µM)	MIC [21]: 2 µg/mL (≈ 1.23 µM); MIC [22]: 4 µg/mL (≈ 2.47 µM); MIC [23]: 4 µg/mL (≈ 2.47 µM); MIC [24]: 1 µg/mL (≈ 0.617 µM); MIC [25]: 2 µg/mL (≈ 1.23 µM); MIC [26]: 4 µg/mL (≈ 2.47 µM); MIC [27]: 4 µg/mL (≈ 2.47 µM); MIC [28]: 4 µg/mL (≈ 2.47 µM); MIC [29]: 4 µg/mL (≈ 2.47 µM); MIC [30]: 4 µg/mL (≈ 2.47 µM)
[H]/N=C(/N)N[C@H]1[C@H](O)[C@@H](O)[C@H](O[C@@H]2O[C@@H](C)[C@](O)(C=O)[C@H]2O[C@@H]2O[C@@H](CO)[C@H](O)[C@@H](O)[C@@H]2NC)[C@@H](N/C(N)=N\[H])[C@@H]1O [Streptomycin]	≤1000	>1000	>1000	≤1000	>1000	≤1000	>1000	≤1000	>1000	>1000	≤1000	≤1000	≤1000	>1000	>1000	≤1000	≤1000	≤1000	>1000	≤1000	MIC [21]: ≤1000 µg/mL; MIC [22]: >1000 µg/mL; MIC [23]: >1000 µg/mL; MIC [24]: >1000 µg/mL; MIC [25]: ≤1000 µg/mL; MIC [26]: ≤1000 µg/mL; MIC [27]: >1000 µg/mL; MIC [28]: ≤1000 µg/mL; MIC [29]: >1000 µg/mL; MIC [30]: >1000 µg/mL
CC1(C)S[C@@H]2[C@H](NC(=O)[C@H](N)c3ccccc3)C(=O)N2[C@H]1C(=O)O [Ampicillin]	1 (≈ 2.86 µM)	1 (≈ 2.86 µM)	64 (≈ 183 µM)	1 (≈ 2.86 µM)	2 (≈ 5.72 µM)	0.5 (≈ 1.43 µM)	8 (≈ 22.9 µM)	1 (≈ 2.86 µM)	0.12 (≈ 0.343 µM)	64 (≈ 183 µM)	1 (≈ 2.86 µM)	64 (≈ 183 µM)	1 (≈ 2.86 µM)	64 (≈ 183 µM)	2 (≈ 5.72 µM)	2 (≈ 5.72 µM)	1 (≈ 2.86 µM)	1 (≈ 2.86 µM)	1 (≈ 2.86 µM)	1 (≈ 2.86 µM)	MIC [21]: 1 µg/mL (≈ 2.86 µM); MIC [22]: 64 µg/mL (≈ 183 µM); MIC [23]: 128 µg/mL (≈ 366 µM); MIC [24]: 1 µg/mL (≈ 2.86 µM); MIC [25]: 1 µg/mL (≈ 2.86 µM); MIC [26]: 4 µg/mL (≈ 11.4 µM); MIC [27]: 32 µg/mL (≈ 91.6 µM); MIC [28]: 2 µg/mL (≈ 5.72 µM); MIC [29]: 0.5 µg/mL (≈ 1.43 µM); MIC [30]: 1 µg/mL (≈ 2.86 µM)
